For 31 molecules, MLANA expression inhibition and AC40 results are on record in PubChem BioAssay AID651795 (Broad Institute, 2012).

Values joined by “and” are separate entries in the source; they are usually repeats but may differ in a detail not shown here. Equal entries are not always repeated. Records with an inconclusive call do not appear. Active and inactive are the calls of the source.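 How the source made its calls: active means compounds whose fitted curve reaches 40% MLANA inhibition below twice the top dose tried; inconclusive means flat curve with 30 to 70% opposite effect, or poor fit; inactive means the rest.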

Tested on in the first experiment: not listed separately
The experiment in a line: MITF target gene MLANA transcript reduction – cell-based, RT-qPCR, SK-MEL-5, dry powder, dose response (AID 651795). To be noted: SK-MEL-5 MLANA mRNA qPCR, delta delta Ct, overnight; at 35 µM (top of the series).
With `NC1=C(NS(=O)(=O)c2ccc(Br)s2)C(=O)c2ccccc2C1=O`, the MLANA expression inhibition was 31.6% (inactive).

A further experiment concerns SK-MEL-5 MLANA mRNA qPCR, delta delta Ct, overnight. The description is as above.
Details: not given
`COC1=C(NS(=O)(=O)c2ccc(Br)cc2)C(=O)c2ccccc2C1=O`: the AC40 was 9120 nM.
Take `CN1CCN(C2=C(Nc3ccc(F)cc3F)C(=O)c3ccccc3C2=O)CC1`: the AC40 was 3450 nM.
As to `CN1CCN(C2=C(NS(=O)(=O)c3ccc(Br)s3)C(=O)c3ccccc3C2=O)CC1`, the AC40 was 2930 nM.
Take `O=C1C=C(NS(=O)(=O)c2cccs2)C(=O)c2ccccc21`: the AC40 is 1980 nM.
Still for that read-out and setting: to `CC(C)N1CCN(C2=C(Nc3ccc(F)cc3F)C(=O)c3ccccc3C2=O)CC1` belongs 3470 nM; to `COc1ccc(NC2=C(N3CCCCC3)C(=O)c3ccccc3C2=O)cc1`, 11000 nM.
Same read-out and setting: the figure for `CC(C)N1CCN(C2=C(Nc3ccc(F)cc3)C(=O)c3ccccc3C2=O)CC1` is 5310 nM.
On to `NC1=C(NS(=O)(=O)c2ccccc2)C(=O)c2ccccc2C1=O`, for which the AC40 was 4500 nM.
On the same count and under the same terms, the figure for `O=C1C(NS(=O)(=O)c2cccs2)=C(c2ccccc2)C(=O)c2ccccc21` is 10800 nM; for `NC1=CC(=O)c2ccccc2C1=O` it is 813 nM.
In the case of `COC1=C(Nc2ccccc2)C(=O)c2ccccc2C1=O`, the AC40 was 492 nM.
As to `NC1=C(NS(=O)(=O)c2cccs2)C(=O)c2ccccc2C1=O`, the AC40 is 2270 nM.
Same read-out and setting: to `O=C1C=C(NS(=O)(=O)c2ccc(Br)cc2)C(=O)c2ccccc21` belongs 2440 nM.
For the molecule `CCN1CCN(C2=C(NS(=O)(=O)c3ccc(Br)cc3)C(=O)c3ccccc3C2=O)CC1`, the AC40 is 6430 nM.
Still for that read-out and setting: to `CCN1CCN(C2=C(NC(=O)c3ccccc3)C(=O)c3ccccc3C2=O)CC1` belongs 1150 nM.
The same measure, in the same setting: the figure for `O=C1C(Nc2ccc(F)cc2)=C(N2CCCCC2)C(=O)c2ccccc21` is 9240 nM.
The same measure, in the same setting: to `O=C1C=C(Nc2ccccc2)C(=O)c2ccccc21` belongs 337 nM and 389 nM; to `NC1=C(NC(=O)c2ccccc2)C(=O)c2ccccc2C1=O`, 1540 nM.
`O=C1C(Nc2ccccc2)=C(c2ccccc2)C(=O)c2ccccc21`: the AC40 is 7780 nM.
On the same count and under the same terms, to `COC1=C(NS(=O)(=O)c2cccs2)C(=O)c2ccccc2C1=O` belongs 10500 nM; to `CCN1CCN(C2=C(Nc3ccc(F)cc3F)C(=O)c3ccccc3C2=O)CC1`, 2480 nM; to `O=C(NC1=C(Cl)C(=O)c2ccccc2C1=O)c1ccccc1`, 227 nM.
On the same count and under the same terms, the figure for `C=CCNC1=C(Cl)C(=O)c2ccccc2C1=O` is 764 nM; for `O=C1C(Nc2ccc(Br)cc2)=C(N2CCCCC2)C(=O)c2ccccc21` it is 14300 nM.
On to `O=C1C=C(Nc2ccc([N+](=O)[O-])c(C(F)(F)F)c2)C(=O)c2ccccc21`, for which the AC40 was 119 nM.
Same read-out and setting: to `O=C1C(Nc2ccc(Cl)cc2)=C(N2CCCC2)C(=O)c2ccccc21` belongs 8640 nM; to `Cc1ccc(NC2=CC(=O)c3ccccc3C2=O)cc1`, 745 nM.
For the molecule `NS(=O)(=O)c1ccc(NC2=CC(=O)c3ccccc3C2=O)cc1`, the AC40 was 82.4 nM.
On the same count and under the same terms, the figure for `O=C1C=C(NS(=O)(=O)c2ccccc2)C(=O)c2ccccc21` is 1360 nM.
Same read-out and setting: the figure for `Cc1nc2ccccc2n1/N=C/c1ccc([N+](=O)[O-])s1` is 2750 nM.
